The source of these data is ChEMBL document CHEMBL1154024, “Synthesis of radiolabeled cytarabine conjugates” (2009).

Assay [1] deals with NCI-H441. The experiment in a line: Cytotoxicity against human H441 cells by glucosaminidase assay. The format is functional, cell-based.
Assay [2] in a line: Cytotoxicity in human H441 cells at 2 uM after 72 hrs by trypan blue cell exclusion assay. The format is functional, NCI-H441.
Assay [3] concerns NCI-H441. The experiment in a line: Cytotoxicity against human H441 cells by serum lactate dehydrogenase assay. The format is functional, cell-based.
In assay [4] the test system is NCI-H441. Put plainly: Cytotoxicity against human H441 cells after 72 hrs by trypan blue cell exclusion assay. The format is functional, cell-based.

Calls of active or inactive are those of the source. The calls are words filed in the database; no cut-off is given here.

For the compound `Nc1ccn([C@@H]2O[C@H](CO)[C@@H](O)[C@@H]2O)c(=O)n1` [CYTARABINE], the result in assay [1] and in assay [3] was Active. Further, the results for the Activity in assay [2] and in assay [4] were 55% and “Dose-dependent effect”, respectively.

With `NNc1ccc(C(=O)Nc2ccn([C@@H]3O[C@H](CO)[C@@H](O)[C@@H]3O)c(=O)n2)cn1`, the outcome in assay [1] and in assay [3] was Active. The figures for the Activity in assay [2] and in assay [4] were 55% and “Dose-dependent effect”, respectively.
